The record followed here is ChEMBL document CHEMBL1201862, “PubChem BioAssay data set” (2004).

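Where inhibition never reached the appropriate level, the endpoint shown equals the highest concentration tested. Otherwise, values were interpolated linearly from a five-concentration, 48-hour dose response in 96-well plates. At the GI50, growth is halved.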 Active and inactive are the calls of the source. No stated cut-off is given here; in the data, active = GI50 up to about 1.1 µM and inactive = higher.

Test systems include HL-60; EKVX; HT-29; UO-31; OVCAR-5; SF-268; NCI-H226; MCF7; HCT-116; A549; CAKI-1; SK-MEL-5; RXF 393; SNB-19; LOX IMVI; U-251; KM12; HOP-92; Malme-3M; HCT-15.
Common to all, as to test: NCI anticancer screen, dose series, 48 h

As for `CC(C)[C@](O)(C(=O)OCC1CC[N+]2([O-])CC[C@@H](O)C12)[C@H](C)O` (some centres not stated), the GI50 in the assay with HL-60, in the assay on EKVX, in the assay with HT-29, in the assay on UO-31, in the assay on OVCAR-5 and in the assay with SF-268 was > 375 µM (inactive) throughout. For the same molecule, the GI50 in the assay with NCI-H226 was > 375 µM (inactive); in the assay with MCF7, > 375 µM (inactive); with HCT-116, > 255 µM (inactive); in the assay with A549, > 375 µM (inactive); in the assay on CAKI-1, > 375 µM (inactive); in the assay with SK-MEL-5, > 334 µM (inactive). In addition, the GI50 is > 375 µM (inactive) in the assay with RXF 393; > 375 µM (inactive) with SNB-19; > 142 µM (inactive) in the assay with LOX IMVI; > 375 µM (inactive) in the assay on U-251; > 375 µM (inactive) in the assay with KM12; > 375 µM (inactive) in the assay with HOP-92. Besides, the GI50 was > 255 µM (inactive) in the assay with Malme-3M and greater than 375 µM in the assay on HCT-15.

As to `CCOC(=O)CN1CCS/C1=N/C#N`, the GI50 with HL-60 was > 100 µM (inactive); in the assay with EKVX it was > 100 µM (inactive); in the assay with HT-29, > 42.4 µM (inactive); in the assay on UO-31, > 100 µM (inactive); in the assay with OVCAR-5 it was 4.22 µM (inactive); in the assay on SF-268, > 100 µM (inactive). The GI50 in the assay with NCI-H226, with MCF7, in the assay on HCT-116, in the assay with A549, with CAKI-1 and in the assay with SK-MEL-5 was > 100 µM (inactive) in each case. For the same molecule, the GI50 is > 100 µM (inactive) with RXF 393; > 100 µM (inactive) in the assay with SNB-19; > 100 µM (inactive) in the assay with U-251; > 100 µM (inactive) in the assay on KM12; > 60 µM (inactive) in the assay with HOP-92; > 100 µM (inactive) in the assay with Malme-3M. Further, in the assay with HCT-15, the GI50 is greater than 100 µM.

For the molecule `CC(=O)Nc1ccc2oc(=O)c3ccccc3c2c1`, the GI50 with HL-60, in the assay with EKVX, with HT-29, in the assay with UO-31, with OVCAR-5 and with SF-268 was > 100 µM (inactive) in each case. The GI50 in the assay on NCI-H226, in the assay on MCF7, with HCT-116, in the assay on A549, in the assay with CAKI-1 and with SK-MEL-5 was > 100 µM (inactive) throughout. The GI50 in the assay on RXF 393, in the assay with SNB-19, in the assay with LOX IMVI, in the assay with U-251, in the assay on KM12 and in the assay with HOP-92 was > 100 µM (inactive) throughout. Besides, the GI50 is > 100 µM (inactive) in the assay on Malme-3M and greater than 100 µM with HCT-15.

For the molecule `CCNC(=O)C(C)C1CCC2(C)C=CC(=O)C(C)=C2C1O` (configuration not stated), the GI50 is > 100 µM (inactive) in the assay with HL-60; > 100 µM (inactive) in the assay with EKVX; > 100 µM (inactive) in the assay on HT-29; > 73.6 µM (inactive) with UO-31; > 100 µM (inactive) in the assay with OVCAR-5; > 100 µM (inactive) with SF-268. Moreover, the GI50 in the assay on NCI-H226 was > 100 µM (inactive); in the assay with MCF7 it was > 100 µM (inactive); in the assay on HCT-116 it was > 100 µM (inactive); with A549, 99.5 µM (inactive); with CAKI-1, > 100 µM (inactive); with SK-MEL-5, > 100 µM (inactive). For the same molecule, the GI50 was > 100 µM (inactive) in the assay on RXF 393; > 100 µM (inactive) with SNB-19; > 91 µM (inactive) with LOX IMVI; > 76.4 µM (inactive) in the assay with U-251; > 100 µM (inactive) in the assay with KM12; > 100 µM (inactive) in the assay on HOP-92. In the assay on HCT-15, this molecule came in with a GI50 greater than 100 µM.

Consider `CC1=CC(O)C(O)C2(C)C1CC1OC(=O)C(O)C3C(C)C(O)C4(O)OCC13C42` (configuration not stated), for which the GI50 is 33 µM (inactive) in the assay with HL-60; 30.9 µM (inactive) with EKVX; 38.1 µM (inactive) in the assay on HT-29; 110 µM (inactive) in the assay with UO-31; 161 µM (inactive) with OVCAR-5; 133 µM (inactive) with SF-268. The GI50 in the assay with NCI-H226 is 41.3 µM (inactive); in the assay on MCF7, 91.6 µM (inactive); in the assay on HCT-116, 99.5 µM (inactive); with A549, 27.9 µM (inactive); with CAKI-1 it was 32.8 µM (inactive); in the assay on SK-MEL-5, 29.4 µM (inactive). For the same molecule, the GI50 is 8.81 µM (inactive) in the assay with RXF 393; 13.7 µM (inactive) with SNB-19; 37.8 µM (inactive) in the assay on LOX IMVI; 62.8 µM (inactive) in the assay on U-251; 13.3 µM (inactive) with KM12; 6.03 µM (inactive) in the assay with HOP-92. Also, the GI50 in the assay with Malme-3M was 97.7 µM (inactive); with HCT-15 it was 335 µM.

On to `CSC1=C(SC)C(=O)c2cn(C)c(=O)cc2C1=O`, for which the GI50 with HL-60 was 0.0731 µM (active); in the assay with EKVX, 18.3 µM (inactive); with HT-29, 6.14 µM (inactive); in the assay with UO-31, 1.75 µM (inactive); in the assay on OVCAR-5 it was 20.2 µM (inactive); in the assay on SF-268 it was 11.8 µM (inactive). Moreover, the GI50 in the assay with NCI-H226 is 19.9 µM (inactive); in the assay with MCF7 it was 2.05 µM (inactive); in the assay with HCT-116, 1.81 µM (inactive); in the assay on A549, 16.1 µM (inactive); with SK-MEL-5 it was 1.75 µM (inactive); in the assay with RXF 393, 1.89 µM (inactive). Also, the GI50 with SNB-19 was 17.1 µM (inactive); with LOX IMVI, 1.78 µM (inactive); with U-251 it was 10.2 µM (inactive); with KM12, 21.6 µM (inactive); with HOP-92, 0.904 µM (active); with Malme-3M it was 2.24 µM (inactive). In addition, the GI50 in the assay with HCT-15 is 2.14 µM.
